Results on 2 compounds are retold here after article PMC8950700 (Pharmaceuticals, 2022).

A word on the inhibition: it is the change of the read-out against control, counted positive when it falls.

Data set [1] concerns H1N1 virus. The data set is classed as cell-based.
Data set [2] concerns H5N1V116A virus. Type of data set: cell-based, influenza A virus.
Data set [3] deals with H5N1wild virus. Briefly: microbe, parasite or virus in culture. The data set is classed as cell-based.
In data set [4] the test system is H5N1N295S virus. Type of data set: cell-based, influenza A virus.
Data set [5] deals with H5N1V116A virus. The data set is classed as cell-based, influenza A virus. This is another data set of the same source.
Data set [6] deals with H1N1 virus. The conditions noted are these: mouse, in vivo.
Data set [7] concerns H5N1N295S virus. The data set is classed as cell-based, influenza A virus. As to conditions: read-out: IC50 (50% Inhibitory Concentration) H5N1N295S.
Data set [8] concerns H5N1N295S virus. The data set is classed as cell-based, influenza A virus. This is another data set of the same source.
Data set [9] deals with A/California/04/2009 (H1N1). Briefly: microbe, parasite or virus in culture. Type of data set: cell-based.
Data set [10] relates to H5N1wild virus. As to conditions: mouse, in vivo.
The nature of the next data set: in vitro. The conditions noted are these: dog.
Data set [11] relates to A/chicken/Egypt/B13825A/2017 (H5N1wild). Briefly: microbe, parasite or virus in culture. The data set is classed as cell-based.
Data set [12] has as its system H5N1wild virus. Type of data set: cell-based.
Data set [13] relates to H5N1V116A virus. Type of data set: cell-based, influenza A virus. As to conditions: read-out: IC50 (50% Inhibitory Concentration) H5N1V116A.
Data set [14] has as its system H1N1 virus. Type of data set: cell-based, influenza A virus. As to conditions: 5 µM.

pIC50: −log10 of the molar value. Like-named read-outs stand apart in the source and are kept apart here.

As to `CCOC(=O)C1=C[C@H](N)C(NC(C)=O)[C@H](OC(CC)CC)C1` (stereo partly shown) [oseltamivir, reference compound], the “inhibition in the viral HA titer, H1N1” value in the data set on H1N1 virus [1] is given as “not more than 80%”. Moreover, the “viral inhibition in the count of plaques, H5N1V116A” value in the data set with H5N1V116A virus [2] was about 40%. For the same compound, the inhibition at 5 µM in the data set with H5N1wild virus [3] (Influenza A virus, read-out: viral inhibition in the count of plaques, H5N1wild) was about 90%. In the data set with H5N1N295S virus [4], the “viral inhibition in the count of plaques, H5N1N295S” value is reported as about 8.5%. The “inhibition in the viral HA titer, H5N1V116A” value with H5N1V116A virus [5] was “not more than 80%”. In the data set on H1N1 virus [6], the “mortality after infection with H1N1” value was 60%. Moreover, in the data set on H1N1 virus [6], the “viral titer in lung tissue (TCID50), H1N1” value was “did not affect”. Also, the pIC50 is 4.59 in the data set with H5N1N295S virus [7]; 5.78 in data set [9] (Influenza A virus, H1N1, read-out: IC50 (50% Inhibitory Concentration) H1N1); 5.00 in data set [11] (Influenza A virus, read-out: IC50 (50% Inhibitory Concentration) H5N1wild); 5.00 in data set [11] (Influenza A virus, read-out: IC50 H5N1wild (Figure 5)); 3.51 in the data set on H5N1V116A virus [13]. The “inhibition in the viral HA titer, H5N1N295S” value in the data set on H5N1N295S virus [8] is reported as at most 20%. Besides, the “survival after infection with H5N1wild” value in the data set with H5N1wild virus [10] is given as 60%. Further, the “viral titer in lung tissue (TCID50), H5N1wild” value in the data set on H5N1wild virus [10] was “reduced the propagation”. In the data set “in vitro”, this compound displayed a CC50 at 72 h of 581 µM. For the same compound, in the data set on H5N1wild virus [12], the “inhibition in the viral HA titer, H5N1wild” value was at most 20%.

For the compound `CC(=O)N[C@H]1[C@H]([C@H](O)[C@H](O)CO)OC(C(=O)O)=C[C@@H]1N=C(N)N` [zanamivir, reference compound], the “inhibition in the viral HA titer, H1N1” value in the data set with H1N1 virus [1] is listed as “not more than 80%”. The “viral inhibition in the count of plaques, H5N1V116A” value in the data set on H5N1V116A virus [2] was found to be 60%. Moreover, the “viral inhibition in the count of plaques, H5N1wild” value in the data set with H5N1wild virus [3] is reported as 69.2%. For the same compound, in the data set with H5N1N295S virus [4], the “viral inhibition in the count of plaques, H5N1N295S” value is 31%. Further, in the data set on H5N1V116A virus [5], the “inhibition in the viral HA titer, H5N1V116A” value is “not more than 80%”. Also, the “mortality after infection with H1N1” value in the data set with H1N1 virus [6] came to 40%. In the data set with H1N1 virus [6], the “viral titer in lung tissue (TCID50), H1N1” value is recorded as “reduced the titration”. In the data set with H1N1 virus [6], the “virus shedding in the nasal wash (EID50), H1N1” value is listed as “significantly reduced the viral titer”. Besides, the pIC50 in the data set with H5N1N295S virus [7] was 4.82; in [9] (read-out: IC50 (50% Inhibitory Concentration) H1N1), 5.78; in data set [11] (read-out: IC50 (50% Inhibitory Concentration) H5N1wild), 4.98; in the data set with H5N1V116A virus [13], 3.90. For the same compound, the “viral inhibition in the count of plaques, H1N1” value in the data set on H1N1 virus [14] is 96.5%. Also, the “inhibition in the viral HA titer, H5N1N295S” value in the data set on H5N1N295S virus [8] is listed as “not more than 25%”. Moreover, the “viral titer in lung tissue (TCID50), H5N1wild” value in the data set on H5N1wild virus [10] is “reduced the titration”. Further, the CC50 at 72 h in the data set “in vitro” was determined as 589 µM. Further, the “inhibition in the viral HA titer, H5N1wild” value in the data set with H5N1wild virus [12] was “not more than 25%”.
